Measurements from PMC5592720 (Planta medica, 2013).
“And” between values parts separate entries of the source, which are not always exact repeats. Equal values may be shown once. Read-outs that look alike come from different tables or passages of the source. Blank lines part the entries; values can stand above or below the compound they belong to.

Columns and labels:
[1] = Phase I metabolic stability in human liver microsomes; assay type: in vitro ADME; settings: pooled human liver microsomes; for Stability in HLM (Phase I): up to 180 min, words
CYP2D6 [2] = molecular target: T1, CYP2D6 (Homo sapiens, UniProt P10635); assay: biochemical
[3] = Stability in simulated intestinal fluid; assay type: in vitro ADME; settings: for % RD of diosgenin depletion / % RD of dioscin depletion: RD = relative difference
[4] = Phase II metabolic stability in S9 fractions; assay type: in vitro ADME, human
CYP3A4 = CYP3A4 (Homo sapiens, UniProt P08684); assay: Inhibition of cytochrome P450 3A4
CYP1A2 [5] = molecular target: T2, CYP1A2 (Homo sapiens, UniProt P05177)
T2 sequence (P05177 1-516): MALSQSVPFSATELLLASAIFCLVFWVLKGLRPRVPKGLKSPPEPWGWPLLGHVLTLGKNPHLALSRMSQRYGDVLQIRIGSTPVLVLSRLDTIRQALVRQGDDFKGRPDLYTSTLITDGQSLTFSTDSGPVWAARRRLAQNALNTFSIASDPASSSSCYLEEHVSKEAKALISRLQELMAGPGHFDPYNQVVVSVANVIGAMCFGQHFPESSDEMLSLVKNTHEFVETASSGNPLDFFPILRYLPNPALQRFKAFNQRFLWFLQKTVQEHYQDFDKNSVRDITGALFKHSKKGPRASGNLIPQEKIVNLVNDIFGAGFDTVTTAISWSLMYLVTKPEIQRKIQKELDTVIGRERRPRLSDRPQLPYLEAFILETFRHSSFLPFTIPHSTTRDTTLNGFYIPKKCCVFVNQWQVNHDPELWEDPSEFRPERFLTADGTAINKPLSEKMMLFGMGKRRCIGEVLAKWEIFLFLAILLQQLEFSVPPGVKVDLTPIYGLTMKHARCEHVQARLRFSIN

CYP2D6 [6] = molecular target: T1, CYP2D6
[7] = cited from earlier work
Caco-2 cell monolayers = assay: in vitro; assay type: in vitro ADME, human; settings: for % Transport Absorptive direction (A–B) / % Transport Secretory direction (A–B): Caco-2 monolayers, 1% HPβCD, 2 h; for Intestinal permeability across Caco-2 monolayers (rating): relative to atenolol and propranolol
in vitro = in vitro ADME, human; settings: human, Caco-2
CYP2C19 [8] = molecular target: T3, CYP2C19 (Homo sapiens, UniProt P33261)
[9] = Stability in simulated gastric fluid; assay type: in vitro ADME; settings: for % RD of diosgenin depletion / % RD of dioscin depletion: RD = relative difference; for Degradation (depletion) in SGF: SGF pH 1.2, end of incubation (b9 prints 3-hour incubation)
CYP1A2 [10] = molecular target: T2, CYP1A2; assay: Inhibition of cytochrome P450 1A2
CYP2C19 [11] = molecular target: T3, CYP2C19; assay: Inhibition of cytochrome P450 2C19; settings: words; table prints 2C19
[12] = rat, cited from earlier work
[13] = IC50 3A4, cDNA baculovirus-expressed enzyme, fluorescence substrate
[14] = IC50 CYP3A4, text, catalytic activity of CYP3A4

CYP3A4, sequence (P08684 whole entry): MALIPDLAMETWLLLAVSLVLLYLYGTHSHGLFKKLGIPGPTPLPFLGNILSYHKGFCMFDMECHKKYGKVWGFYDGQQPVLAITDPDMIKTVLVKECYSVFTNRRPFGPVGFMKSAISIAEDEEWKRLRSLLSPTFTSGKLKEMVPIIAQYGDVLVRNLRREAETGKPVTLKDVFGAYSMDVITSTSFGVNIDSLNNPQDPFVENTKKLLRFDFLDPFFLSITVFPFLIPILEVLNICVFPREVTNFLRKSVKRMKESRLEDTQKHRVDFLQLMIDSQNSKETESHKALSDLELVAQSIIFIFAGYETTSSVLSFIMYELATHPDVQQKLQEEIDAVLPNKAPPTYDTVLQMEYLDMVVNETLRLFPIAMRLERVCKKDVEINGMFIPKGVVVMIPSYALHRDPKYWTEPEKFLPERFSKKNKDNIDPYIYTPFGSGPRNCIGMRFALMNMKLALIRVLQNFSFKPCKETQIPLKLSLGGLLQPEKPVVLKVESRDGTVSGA
T1 sequence (P10635 whole entry): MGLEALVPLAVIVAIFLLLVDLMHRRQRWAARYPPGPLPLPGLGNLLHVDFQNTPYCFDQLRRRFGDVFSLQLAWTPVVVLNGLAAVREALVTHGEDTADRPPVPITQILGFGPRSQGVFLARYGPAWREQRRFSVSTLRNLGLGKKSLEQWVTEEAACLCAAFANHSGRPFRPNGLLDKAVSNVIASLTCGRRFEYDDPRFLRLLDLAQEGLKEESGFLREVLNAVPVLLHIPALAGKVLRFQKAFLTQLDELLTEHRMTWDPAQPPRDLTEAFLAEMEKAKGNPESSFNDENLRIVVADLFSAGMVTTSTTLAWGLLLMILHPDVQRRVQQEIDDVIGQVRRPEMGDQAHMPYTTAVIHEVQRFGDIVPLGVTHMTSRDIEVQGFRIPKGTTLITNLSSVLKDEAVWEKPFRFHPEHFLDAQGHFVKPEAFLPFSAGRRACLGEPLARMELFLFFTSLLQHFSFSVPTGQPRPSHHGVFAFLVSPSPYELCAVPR
T3 sequence (P33261 whole entry): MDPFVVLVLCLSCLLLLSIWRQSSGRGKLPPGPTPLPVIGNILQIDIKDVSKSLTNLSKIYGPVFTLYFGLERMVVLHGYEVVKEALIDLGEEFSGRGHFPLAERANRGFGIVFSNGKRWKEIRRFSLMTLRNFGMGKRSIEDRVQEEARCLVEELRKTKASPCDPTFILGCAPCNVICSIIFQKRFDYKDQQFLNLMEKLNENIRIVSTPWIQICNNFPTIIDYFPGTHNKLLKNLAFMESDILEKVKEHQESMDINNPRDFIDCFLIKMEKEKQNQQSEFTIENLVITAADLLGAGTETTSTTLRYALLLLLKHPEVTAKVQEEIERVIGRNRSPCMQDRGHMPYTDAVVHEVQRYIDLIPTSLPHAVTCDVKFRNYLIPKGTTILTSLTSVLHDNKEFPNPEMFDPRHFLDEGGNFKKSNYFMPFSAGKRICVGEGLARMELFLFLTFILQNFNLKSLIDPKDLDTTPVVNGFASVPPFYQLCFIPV

Compound: C[C@@H]1CC[C@@]2(OC1)O[C@H]1C[C@H]3[C@@H]4CC=C5C[C@@H](O)CC[C@]5(C)[C@H]4CC[C@]3(C)[C@H]1[C@@H]2C [Diosgenin, diosgenin]
- Stability in HLM (Phase I) [1]: stable
- IC50 (CYP2D6 [2]): > 50 µM
- % RD of diosgenin depletion ([3]; SIF pH 6.8, 60 min): 1.28%
- % RD of diosgenin depletion ([3]; SIF pH 6.8, 120 min): 4.21%
- % RD of diosgenin depletion ([3]; SIF pH 6.8, 180 min): 4.80%
- Degradation (disappearance) in SIF ([3]; SIF pH 6.8, after 3 hours of incubation): < 10% and 4.8%
- Amount of diosgenin in SIF ([3]; SIF pH 6.8, incubation 0 min): 57.0 ± 1.0 µg/mL
- Amount of diosgenin in SIF ([3]; SIF pH 6.8, incubation 60 min): 56.2 ± 1.9 µg/mL
- Amount of diosgenin in SIF ([3]; SIF pH 6.8, incubation 120 min): 54.6 ± 2.0 µg/mL
- Amount of diosgenin in SIF ([3]; SIF pH 6.8, incubation 180 min): 54.2 ± 3.2 µg/mL
- Intrinsic clearance in S9 fraction ([4]; S9 fraction, diosgenin 100 μM): 7 mL/min/kg
- half-life at 100 μM ([4]; human, s9): 11.3 min
- IC50 (CYP3A4; [13]): 17 ± 4 µM
- IC50 (CYP3A4; [14]): 21.7 µM
- Effect on CYP 1A2 (other CYP enzymes) (CYP1A2 [5]): not affected
- Effect on CYP 2D6 (other CYP enzymes) (CYP2D6 [6]): not affected
- Aqueous solubility [7]: poor aqueous solubility
- % Transport Absorptive direction (A–B) (Caco-2 cell monolayers): 3.8% and 3.8 ± 0.8%
- % Transport Secretory direction (A–B) (Caco-2 cell monolayers): 21% and 21 ± 1%
- Intestinal permeability across Caco-2 monolayers (rating) (Caco-2 cell monolayers): moderate
- Diosgenin levels in apical or basolateral side (Caco-2 cell monolayers; transport buffer (HBSS) without HPβCD, after 2-hour incubation): no diosgenin levels were detected
- Papp A→B at 2 h (in vitro): 9.6 ± 0.7 ×10⁻⁶ cm/s
- Papp B→A at 2 h (in vitro): 48 ± 4 ×10⁻⁶ cm/s
- efflux ratio at 120 min (in vitro): 5
- Effect on CYP 2C9 as printed in text (other CYP enzymes) (CYP2C19 [8]): not affected
- % RD of diosgenin depletion ([9]; SGF pH 1.2, 30 min): 3.62%
- % RD of diosgenin depletion ([9]; SGF pH 1.2, 60 min): 8.31%
- % RD of diosgenin depletion ([9]; SGF pH 1.2, 120 min): 8.59%
- Degradation (depletion) in SGF [9]: < 10% and 8.5%
- Amount of diosgenin in SGF ([9]; SGF pH 1.2, incubation 0 min): 52.4 ± 0.9 µg/mL
- Amount of diosgenin in SGF ([9]; SGF pH 1.2, incubation 30 min): 50.5 ± 0.9 µg/mL
- Amount of diosgenin in SGF ([9]; SGF pH 1.2, incubation 60 min): 48.0 ± 1.9 µg/mL
- Amount of diosgenin in SGF ([9]; SGF pH 1.2, incubation 120 min): 47.9 ± 1.1 µg/mL
- IC50 (CYP1A2 [10]): > 50 µM

- Papp of Ly (monolayer integrity marker) (Caco-2 cell monolayers; Caco-2): 2.0 ± 0.5 × 10^−6 cm/s
Compound: lucifer yellow [Ly, reference compound]

Compound: C[C@@H]1CC[C@@]2(OC1)O[C@H]1C[C@H]3[C@@H]4CC=C5C[C@@H](O[C@@H]6O[C@H](CO)[C@@H](O[C@@H]7O[C@@H](C)[C@H](O)[C@@H](O)[C@H]7O)[C@H](O)[C@H]6O[C@@H]6O[C@@H](C)[C@H](O)[C@@H](O)[C@H]6O)CC[C@]5(C)[C@H]4CC[C@]3(C)[C@H]1[C@@H]2C [Dioscin, dioscin]
- Compound detected after incubation in HLM ([1]; dioscin 50 μM): more than 50%
- Stability in HLM (Phase I) [1]: relatively stable
- IC50 (CYP2D6 [2]): > 50 µM
- % RD of dioscin depletion ([3]; SIF pH 6.8, 60 min): 4.3%
- % RD of dioscin depletion ([3]; SIF pH 6.8, 120 min): 9.9%
- % RD of dioscin depletion ([3]; SIF pH 6.8, 180 min): 11.6%
- Amount of dioscin in SIF ([3]; SIF pH 6.8, incubation 0 min): 41.1 ± 0.8 µg/mL
- Amount of dioscin in SIF ([3]; SIF pH 6.8, incubation 60 min): 39.3 ± 1.0 µg/mL
- Amount of dioscin in SIF ([3]; SIF pH 6.8, incubation 120 min): 37.0 ± 1.3 µg/mL
- Amount of dioscin in SIF ([3]; SIF pH 6.8, incubation 180 min): 36.3 ± 1.1 µg/mL
- Compound detected after incubation in S9 fractions ([4]; S9 fractions, dioscin 50 μM): more than 50%
- Stability in S9 fraction (Phase II) ([4]; S9 fractions, words): relatively stable
- Effect on CYP 2C9 as printed in text (other CYP enzymes) (CYP2C19 [11]): not affected
- Half-life after oral administration ([12]; oral): 1540 min
- Oral bioavailability [12]: low oral bioavailability
- IC50 (CYP3A4; [13]): 33 ± 4 µM
- IC50 (CYP3A4; [14]): 33.4 µM
- Effect on CYP 2D6 (other CYP enzymes) (CYP2D6 [6]; words): not affected
- Efflux across Caco-2 monolayer (Caco-2 cell monolayers; Caco-2, words): no significant efflux
- % Transport Absorptive direction (A–B) (Caco-2 cell monolayers): 7.5% and 7.5 ± 0.8%
- % Transport Secretory direction (A–B) (Caco-2 cell monolayers): 11% and 11 ± 1%
- Intestinal permeability across Caco-2 monolayers (rating) (Caco-2 cell monolayers): moderate
- Papp A→B at 2 h (in vitro): 15 ± 1 ×10⁻⁶ cm/s
- Papp B→A at 2 h (in vitro): 20 ± 3 ×10⁻⁶ cm/s
- efflux ratio at 120 min (in vitro): 1.3
- % RD of dioscin depletion ([9]; SGF pH 1.2, 30 min): 16.7%
- % RD of dioscin depletion ([9]; SGF pH 1.2, 60 min): 23.6%
- % RD of dioscin depletion ([9]; SGF pH 1.2, 120 min): 28.3%
- Degradation (depletion) in SGF [9]: 28.3%
- Amount of dioscin in SGF ([9]; SGF pH 1.2, incubation 0 min): 45.0 ± 4.0 µg/mL
- Amount of dioscin in SGF ([9]; SGF pH 1.2, incubation 30 min): 37.5 ± 1.2 µg/mL
- Amount of dioscin in SGF ([9]; SGF pH 1.2, incubation 60 min): 34.4 ± 1.1 µg/mL
- Amount of dioscin in SGF ([9]; SGF pH 1.2, incubation 120 min): 32.3 ± 1.0 µg/mL
- Dioscin still detected after incubation in SGF ([9]; after 3-hour incubation in SGF as printed): 71.7%
- IC50 (CYP1A2 [10]): > 50 µM
- Effect on CYP 1A2 (other CYP enzymes) (CYP1A2 [10]; words): not affected
